What was measured:
[1] = tested on: MOLM-13 (acute myeloid leukemia, FLT3-ITD positive); assay: Calcein AM cytotoxicity assay; assay type: cell-based; conditions: Homo sapiens, 72 h; MOLM-13; Calcein AM, three days; read-out: EC50 values (μM) MOLM-13
Summary of the method: (§1)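 Calcein AM at 1 μg/ml final, 1 h incubation: green fluorescence from calcein formed by esterases of viable cells serves as the read-out. Compounds were added at various concentrations in triplicate the day after seeding, with drug exposure lasting three days.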

[2] = tested on: U937 (monocytic leukemia, wt FLT3); assay: Calcein AM cytotoxicity assay; assay type: cell-based; conditions: Homo sapiens, U-937, 72 h; U937; Calcein AM, three days; read-out: EC50 values (μM) U937
Summary of the method: as §1

[3] = tested on: K562; assay: Calcein AM cytotoxicity assay; assay type: cell-based; conditions: Homo sapiens, 72 h; K562; Calcein AM, three days; read-out: EC50 values (μM) K562
Summary of the method: as §1

[4] = tested on: MCF-7; assay: Calcein AM cytotoxicity assay; assay type: cell-based; conditions: Homo sapiens, MCF7, 72 h; MCF-7; Calcein AM, three days; read-out: EC50 values (μM) MCF-7
Summary of the method: as §1

[5] = tested on: EOL-1 (eosinophilic leukaemia, carrying the fusion FIP1L1-PDGFRA); assay: Calcein AM cytotoxicity assay; assay type: cell-based; conditions: Homo sapiens, EOL1, 72 h; EOL-1; Calcein AM, three days; read-out: EC50 values (μM) EOL-1
Summary of the method: as §1

[6] = tested on: THP-1 (acute myeloid leukemia, wt FLT3); assay: Calcein AM cytotoxicity assay; assay type: cell-based; conditions: Homo sapiens, 72 h; THP-1; Calcein AM, three days; read-out: EC50 values (μM) THP-1
Summary of the method: as §1

[7] = tested on: MV4-11 (acute myeloid leukemia, FLT3-ITD positive); assay: Calcein AM cytotoxicity assay; assay type: cell-based; conditions: Homo sapiens, 72 h; MV4-11; Calcein AM, three days after drug addition; read-out: EC50 values (μM) MV4-11
Summary of the method: as §1

[8] = target: T1, FLT3 D835 (Homo sapiens, UniProt P36888); assay: Kinase inhibition assay with [γ-33P]ATP; assay type: biochemical; conditions: AGLT substrate, 1 μM ATP
T1 sequence (P36888 1-993 D835Y): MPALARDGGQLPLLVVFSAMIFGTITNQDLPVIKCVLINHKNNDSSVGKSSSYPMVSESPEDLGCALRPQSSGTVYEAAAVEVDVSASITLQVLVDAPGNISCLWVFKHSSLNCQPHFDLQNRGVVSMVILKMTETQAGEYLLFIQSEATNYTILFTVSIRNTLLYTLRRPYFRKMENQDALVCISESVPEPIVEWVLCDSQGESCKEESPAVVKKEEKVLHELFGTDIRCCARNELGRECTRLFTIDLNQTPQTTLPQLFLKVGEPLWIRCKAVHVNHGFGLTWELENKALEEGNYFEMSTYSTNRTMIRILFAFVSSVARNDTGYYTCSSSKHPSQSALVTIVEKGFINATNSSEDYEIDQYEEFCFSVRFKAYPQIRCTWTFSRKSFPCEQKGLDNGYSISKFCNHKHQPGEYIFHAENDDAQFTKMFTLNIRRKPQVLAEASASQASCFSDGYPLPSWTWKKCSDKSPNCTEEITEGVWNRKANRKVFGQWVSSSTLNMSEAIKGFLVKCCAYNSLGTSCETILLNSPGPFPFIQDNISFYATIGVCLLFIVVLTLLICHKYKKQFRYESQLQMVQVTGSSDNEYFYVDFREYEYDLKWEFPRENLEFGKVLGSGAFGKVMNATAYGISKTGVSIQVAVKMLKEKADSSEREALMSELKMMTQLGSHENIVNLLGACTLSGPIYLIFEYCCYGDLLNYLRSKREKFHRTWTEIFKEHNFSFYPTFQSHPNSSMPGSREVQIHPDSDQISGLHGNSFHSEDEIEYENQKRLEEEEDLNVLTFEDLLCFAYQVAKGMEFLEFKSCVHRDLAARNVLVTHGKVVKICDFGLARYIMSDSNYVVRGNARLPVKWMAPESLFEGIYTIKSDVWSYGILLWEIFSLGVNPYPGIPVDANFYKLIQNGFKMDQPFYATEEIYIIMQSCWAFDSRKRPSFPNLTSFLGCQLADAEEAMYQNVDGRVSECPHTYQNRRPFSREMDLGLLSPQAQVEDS

[9] = target: T2, CDK2/Cyclin E (Homo sapiens, UniProt P24941); assay: Kinase inhibition assay with [γ-33P]ATP; assay type: biochemical; conditions: histone H1, 15 μM ATP; read-out: IC50 values (μM) CDK2
T2 construct: made in house; host or cells: Sf9 insect cells, baculoviral infection
Summary of the method: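 Human CDK2/Cyclin E, expressed in baculovirus-infected Sf9 insect cells and purified on a NiNTA column, was assayed with 1 mg/mL histone H1 substrate, 15 μM ATP plus 0.05 μCi [γ-33P]ATP and test compound in 10 μL of buffer (60 mM HEPES-NaOH pH 7.5, 3 mM MgCl2, 3 mM MnCl2, 3 μM Na-orthovanadate, 1.2 mM DTT, PEG20,000). Reactions were quenched with 5 μL 3% H3PO4, spotted onto P-81 phosphocellulose, washed and dried.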

SMILES | IC50 [8] [µM] | IC50 [9] [µM] | EC50 [1] [µM] | EC50 [2] [µM] | EC50 [3] [µM] | EC50 [4] [µM] | EC50 [5] [µM] | EC50 [6] [µM] | EC50 [7] [µM]
CN(C)CCCNc1nc(Nc2ccc(C(=O)N3CCOCC3)nc2)c2ncn(C3CCCC3)c2n1 [Compound 179] | 0.023 | 0.04 | 0.078 | – | – | 2.21 | 0.225 | > 4 | 0.013
NC1CCC(Nc2nc(Nc3ccc(N4CC5(COC5)C4)cc3)c3ncn(C4CCCC4)c3n2)CC1 (stereo not drawn) [Compound 272] | – | 0.025 | 0.004 | 0.638 | 1.18 | 1.05 | 0.022 | 0.693 | 0.003
NC1CCC(Nc2nc(Nc3ccc(N4CCCC4)cc3)c3ncn(C4CCCC4)c3n2)CC1 (stereo not drawn) [Compound 263] | 0.011 | 0.031 | 0.024 | 3.17 | 1.27 | 1.33 | 0.03 | 3.11 | 0.018
NC1CCC(Nc2nc(Nc3ccc(CN4CCOCC4)cc3)c3ncn(C4CCCC4)c3n2)CC1 (stereo not drawn) [Compound 264] | 0.009 | 0.007 | – | – | – | – | – | – | –
CN1CCN(C(=O)c2ccc(Nc3nc(NC4CCC(N)CC4)nc4c3ncn4C3CCCC3)cc2)CC1 (stereo not drawn) [Compound 3] | 0.003 | 0.004 | 0.02 | 3.66 | 1.23 | 0.273 | 0.015 | 3.02 | 0.018
NCCCCNc1nc(Nc2ccc(CN3CCOCC3)cc2)c2ncn(C3CCCC3)c2n1 [Compound 270] | 0.005 | 0.625 | 0.014 | > 4 | 1.81 | 2.1 | – | 1.24 | 0.029
CN1CC2(C1)CN(c1ccc(Nc3nc(NC4CCC(O)CC4)nc4c3ncn4C3CCCC3)cc1)C2 (stereo not drawn) [Compound 7] | 0.011 | 0.006 | – | – | – | – | – | – | –
NC1CCC(Nc2nc(Nc3ccc(N4CCOCC4)cc3)c3ncn(C4CCCC4)c3n2)CC1 (stereo not drawn) [Compound 1] | 0.007 | 0.017 | 0.004 | 2.13 | 1.19 | 0.32 | 0.008 | 1.01 | 0.001

The next lines start with results.

IC50 [8] [µM] | IC50 [9] [µM] | SMILES | EC50 [1] [µM] | EC50 [2] [µM] | EC50 [3] [µM] | EC50 [4] [µM] | EC50 [5] [µM] | EC50 [6] [µM] | EC50 [7] [µM]
0.007 | 0.642 | NCCCCNc1nc(Nc2ccc(N3CCOCC3)cc2)c2ncn(C3CCCC3)c2n1 [Compound 265] | 0.016 | > 4 | 3.74 | 3.25 | 0.039 | > 4 | 0.017
0.002 | 0.028 | NCCCCNc1nc(Nc2ccc(N3CC4(COC4)C3)nc2)c2ncn(C3CCCC3)c2n1 [Compound 28] | 0.004 | 0.605 | 1.05 | 0.925 | 0.013 | 0.514 | 0.001
0.003 | 0.008 | NC1CCC(Nc2nc(Nc3ccc(CN4CCNCC4)cc3)c3ncn(C4CCCC4)c3n2)CC1 (stereo not drawn) [Compound 2] | 0.015 | 1.8 | 1.57 | 0.52 | 0.023 | 2.28 | 0.01
0.003 | 0.586 | CCN1CCN(c2ccc(Nc3nc(NCCCCN)nc4c3ncn4C3CCCC3)cc2)CC1 [Compound 266] | 0.014 | 3.77 | 1.43 | 2.15 | 0.074 | 2.99 | 0.018
0.011 | 0.002 | CN1CCN(C(=O)c2ccc(Nc3nc(NCCCCN)nc4c3ncn4C3CCCC3)cc2)CC1 [Compound 27] | 0.019 | 0.794 | 0.57 | 0.265 | 0.053 | 0.624 | 0.024
0.01 | 0.004 | NCCNc1nc(Nc2ccc(CN3CCNCC3)cc2)c2ncn(C3CCCC3)c2n1 [Compound 14] | 0.025 | 1.45 | 1.56 | 1.52 | 0.054 | 1.86 | 0.083
0.005 | 0.016 | CN(C)CCNc1nc(Nc2ccc(CN3CCOCC3)nc2)c2ncn(C3CCCC3)c2n1 [Compound 172] | 0.017 | 1.48 | 1.16 | 0.43 | 0.014 | 1.52 | 0.003
